From US20100298141A1, “SUBSTITUTED PYRIDINE N-OXIDE HERBICIDES” (E. I. DU PONT DE NEMOURS AND COMPANY, priority 2007, published 2010)

Columns and labels:
duck salad = test: Test C flooded paddy test; format: in vivo, Heteranthera limosa; details: Flood
Text: (§1) At time of treatment, test pots were flooded to 3 cm above the soil surface, treated by application of test compounds directly to the paddy water, and then maintained at that water depth for the duration of the test. Treated plants and controls were maintained in a greenhouse for 13 to 15 days, after which time all species were compared to controls and visually evaluated. […] A dash (-) response means no test result.

barnyardgrass [1] = test: Test A pre-/postemergence greenhouse test; format: in vivo, Echinochloa crus-galli; details: for Barnyardgrass plant response rating: 0 to 100 scale; for Plant response rating, Barnyardgrass: 0 to 100 scale where 0 is no effect and 100 is complete control
Text: (§2) Seeds of barnyardgrass (Echinochloa crus-galli), crabgrass (Digitaria sanguinalis), giant foxtail (Setaria faberi), morningglory (Ipomoea spp.), redroot pigweed (Amaranthus retroflexus), velvetleaf (Abutilon theophrasti), wheat (Triticum aestivum), and corn (Zea mays) were planted into a blend of loam soil and sand and treated preemergence with a directed soil spray using test compounds formulated in a non-phytotoxic solvent mixture which included a surfactant. At the same time these species were also treated with postemergence applications of test compounds formulated in the same manner. Plants ranged in height from two to ten cm and were in the one- to two-leaf stage for the postemergence treatment. Treated plants and untreated controls were maintained in a greenhouse for approximately ten days, after which time all treated plants were compared to untreated controls and visually evaluated for injury. […] A dash (-) response means no test results.

wheat = test: Test A pre-/postemergence greenhouse test; format: in vivo, Triticum aestivum; details: for Wheat plant response rating: 0 to 100 scale; for Plant response rating, Wheat: 0 to 100 scale where 0 is no effect and 100 is complete control
Text: as §2

redroot pigweed = test: Test A pre-/postemergence greenhouse test; format: in vivo, Amaranthus retroflexus; details: for Pigweed plant response rating: 0 to 100 scale; for Plant response rating, Pigweed: 0 to 100 scale where 0 is no effect and 100 is complete control
Text: as §2

corn = test: Test A pre-/postemergence greenhouse test; format: in vivo, Zea mays; details: for Corn plant response rating: 0 to 100 scale; for Plant response rating, Corn: 0 to 100 scale where 0 is no effect and 100 is complete control
Text: as §2

umbrella sedge = test: Test C flooded paddy test; format: in vivo, Cyperus difformis; details: Flood
Text: as §1

rice = test: Test C flooded paddy test; format: in vivo, Oryza sativa; details: Flood
Text: as §1

morningglory = test: Test A pre-/postemergence greenhouse test; format: in vivo, Ipomoea spp.; details: for Morningglory plant response rating: 0 to 100 scale; for Plant response rating, Morningglory: 0 to 100 scale where 0 is no effect and 100 is complete control
Text: as §2

giant foxtail = test: Test A pre-/postemergence greenhouse test; format: in vivo, Setaria faberi; details: for Foxtail, Giant plant response rating: 0 to 100 scale; for Plant response rating, Foxtail, Giant: 0 to 100 scale where 0 is no effect and 100 is complete control
Text: as §2

barnyardgrass [2] = test: Test C flooded paddy test; format: in vivo, Echinochloa crus-galli; details: Flood
Text: as §1

crabgrass = test: Test A pre-/postemergence greenhouse test; format: in vivo, Digitaria sanguinalis; details: for Crabgrass, Large plant response rating: 0 to 100 scale; for Plant response rating, Crabgrass, Large: 0 to 100 scale where 0 is no effect and 100 is complete control
Text: as §2

velvetleaf = test: Test A pre-/postemergence greenhouse test; format: in vivo, Abutilon theophrasti; details: for Velvetleaf plant response rating: 0 to 100 scale; for Plant response rating, Velvetleaf: 0 to 100 scale where 0 is no effect and 100 is complete control
Text: as §2

[3] = 31 g ai/ha, scale 0 to 100 (0 no effect, 100 complete control)
[4] = 62 g ai/ha, scale 0 to 100, 0 no effect, 100 complete control, 13 to 15 days
[5] = 125 g ai/ha, scale 0 to 100, 0 no effect, 100 complete control, 13 to 15 days
[6] = 250 g ai/ha, scale 0 to 100 (0 no effect, 100 complete control)
[7] = Postemergence, 125 g ai/ha, 0 is no effect, 100 is complete control
[8] = Postemergence, 500 g ai/ha, 0 is no effect, 100 is complete control
[9] = Preemergence, 125 g ai/ha, 0 no effect, 100 complete control
[10] = 250 g ai/ha, scale 0 to 100, 0 no effect, 100 complete control, 13 to 15 days
[11] = 62 g ai/ha, scale 0 to 100 (0 no effect, 100 complete control)
[12] = Preemergence, 500 g ai/ha, 0 no effect, 100 complete control

## Cn1nc(C(F)(F)F)c(C(Cl)S(=O)(=O)c2ccc(Cl)c[n+]2[O-])c1Cl (racemic) [Compound 21]
Duck salad; [3]
  Plant response rating, Ducksalad: 0
Duck salad; [4]
  Plant response rating, Ducksalad: 0
Duck salad; [5]
  Plant response rating, Ducksalad: 0
Duck salad; [6]
  Plant response rating, Ducksalad: 90
Barnyardgrass [1]; [7]
  Barnyardgrass plant response rating: 0
Barnyardgrass [1]; [8]
  Barnyardgrass plant response rating: 30
Barnyardgrass [1]; [9]
  Barnyardgrass plant response rating: 60
Barnyardgrass [1]; Preemergence, 500 g ai/ha
  Plant response rating, Barnyardgrass: 90
wheat; [7]
  Wheat plant response rating: 0
wheat; [8]
  Wheat plant response rating: 0
wheat; [9]
  Wheat plant response rating: 0
wheat; Preemergence, 500 g ai/ha
  Plant response rating, Wheat: 0
Redroot pigweed; [7]
  Pigweed plant response rating: 0
Redroot pigweed; [8]
  Pigweed plant response rating: 0
Redroot pigweed; [9]
  Pigweed plant response rating: 40
corn; [7]
  Corn plant response rating: 0
corn; [8]
  Corn plant response rating: 0
corn; [9]
  Corn plant response rating: 0
corn; Preemergence, 500 g ai/ha
  Plant response rating, Corn: 0
Umbrella sedge; [3]
  Plant response rating, Sedge, Umbrella: 0
Umbrella sedge; [4]
  Plant response rating, Sedge, Umbrella: 0
Umbrella sedge; [5]
  Plant response rating, Sedge, Umbrella: 40
Umbrella sedge; [10]
  Plant response rating, Sedge, Umbrella: 90
rice; [3]
  Plant response rating, Rice: 0
rice; [4]
  Plant response rating, Rice: 0
rice; [5]
  Plant response rating, Rice: 0
rice; [6]
  Plant response rating, Rice: 0
morningglory; [7]
  Morningglory plant response rating: 0
morningglory; [8]
  Morningglory plant response rating: 0
morningglory; Preemergence, 500 g ai/ha
  Plant response rating, Morningglory: 0
Giant foxtail; [7]
  Foxtail, Giant plant response rating: 0
Giant foxtail; [8]
  Foxtail, Giant plant response rating: 40
Giant foxtail; [9]
  Foxtail, Giant plant response rating: 80
Giant foxtail; Preemergence, 500 g ai/ha
  Plant response rating, Foxtail, Giant: 90
Barnyardgrass [2]; [3]
  Plant response rating, Barnyardgrass: 0
Barnyardgrass [2]; [4]
  Plant response rating, Barnyardgrass: 0
Barnyardgrass [2]; [5]
  Plant response rating, Barnyardgrass: 0
Barnyardgrass [2]; [6]
  Plant response rating, Barnyardgrass: 20
crabgrass; [7]
  Crabgrass, Large plant response rating: 20
crabgrass; [8]
  Crabgrass, Large plant response rating: 40
crabgrass; [9]
  Crabgrass, Large plant response rating: 60
crabgrass; Preemergence, 500 g ai/ha
  Plant response rating, Crabgrass, Large: 80
velvetleaf; [7]
  Velvetleaf plant response rating: 0
velvetleaf; [8]
  Velvetleaf plant response rating: 0
velvetleaf; [9]
  Velvetleaf plant response rating: 0
velvetleaf; Preemergence, 500 g ai/ha
  Plant response rating, Velvetleaf: 0

## Cc1cc[n+]([O-])c([S+]([O-])Cc2c(C(F)(F)F)nn(C)c2OCC(F)(F)C(F)(F)F)c1 (centres unmarked) [Compound 90]
Duck salad; [11]
  Plant response rating, Ducksalad: 0
Duck salad; [10]
  Plant response rating, Ducksalad: 20
Barnyardgrass [1]; Postemergence, 125 g ai/ha
  Plant response rating, Barnyardgrass: 0
Barnyardgrass [1]; [8]
  Barnyardgrass plant response rating: 60
Barnyardgrass [1]; [9]
  Barnyardgrass plant response rating: 0
Barnyardgrass [1]; Preemergence, 500 g ai/ha
  Plant response rating, Barnyardgrass: 100
wheat; Postemergence, 125 g ai/ha
  Plant response rating, Wheat: 0
wheat; [8]
  Wheat plant response rating: 70
wheat; [9]
  Wheat plant response rating: 0
wheat; [12]
  Wheat plant response rating: 80
Redroot pigweed; Postemergence, 125 g ai/ha
  Plant response rating, Pigweed: 10
Redroot pigweed; [8]
  Pigweed plant response rating: 30
Redroot pigweed; [9]
  Pigweed plant response rating: 0
Redroot pigweed; Preemergence, 500 g ai/ha
  Plant response rating, Pigweed: 40
corn; Postemergence, 125 g ai/ha
  Plant response rating, Corn: 30
corn; [8]
  Corn plant response rating: 50
corn; [9]
  Corn plant response rating: 0
corn; Preemergence, 500 g ai/ha
  Plant response rating, Corn: 50
Umbrella sedge; [11]
  Plant response rating, Sedge, Umbrella: 0
Umbrella sedge; [10]
  Plant response rating, Sedge, Umbrella: 70
rice; [11]
  Plant response rating, Rice: 0
rice; [10]
  Plant response rating, Rice: 0
morningglory; Postemergence, 125 g ai/ha
  Plant response rating, Morningglory: 20
morningglory; [8]
  Morningglory plant response rating: 90
morningglory; [9]
  Morningglory plant response rating: 0
morningglory; Preemergence, 500 g ai/ha
  Plant response rating, Morningglory: 60
Giant foxtail; Postemergence, 125 g ai/ha
  Plant response rating, Foxtail, Giant: 50
Giant foxtail; [8]
  Foxtail, Giant plant response rating: 80
Giant foxtail; [9]
  Foxtail, Giant plant response rating: 70
Giant foxtail; Preemergence, 500 g ai/ha
  Plant response rating, Foxtail, Giant: 100
Barnyardgrass [2]; [11]
  Plant response rating, Barnyardgrass: 0
Barnyardgrass [2]; [10]
  Plant response rating, Barnyardgrass: 0
crabgrass; Postemergence, 125 g ai/ha
  Plant response rating, Crabgrass, Large: 20
crabgrass; [8]
  Crabgrass, Large plant response rating: 80
crabgrass; [9]
  Crabgrass, Large plant response rating: 40
crabgrass; Preemergence, 500 g ai/ha
  Plant response rating, Crabgrass, Large: 90
velvetleaf; Postemergence, 125 g ai/ha
  Plant response rating, Velvetleaf: 0
velvetleaf; [8]
  Velvetleaf plant response rating: 80
velvetleaf; [9]
  Velvetleaf plant response rating: 0
velvetleaf; [12]
  Velvetleaf plant response rating: 70
